Assay results taken from ChEMBL document CHEMBL3507680, “University of Dundee, Gates Library screen for HepG2 cell viability”.

Test: Human HepG2 cell viability assay in 384 well format
Format: toxicity, cell-based
Design: dose 125 nL, time 70.5 hour; cytotoxicity at 70.5 h: concentration not given beside the values
Conditions: HepG2 cells, read-out: Inhibition

SMILES	cytotoxicity at 70.5 h [%]
CC(C)c1nn(CC(=O)N2CCCC2)c(=O)c2c1cnn2C(C)(C)C	14.2
COCc1ccccc1NC(=O)NC(C)c1ccc(C)o1 (configuration not stated)	-3.14
O=C1CCCN1CCC1CCCCN1C(=O)c1ccc(SCCO)cc1 (configuration not stated)	-6.58
CCOCc1cnc2n1CCN(C(=O)c1ccccc1)C2C (configuration not stated)	19.2
Cc1cc(C)c(CNC(=O)N2CCCC2c2cccc(F)c2)c(=O)[nH]1 (configuration not stated)	26
Cc1ccc(N2CC[C@H]3O[C@H](C(=O)N4CCCCO4)CC[C@H]32)nn1	-3.7
CCS(=O)(=O)N1CCCC(c2nccn2Cc2ccccn2)C1 (configuration not stated)	-2.1
Cc1nonc1C(=O)N1CC[C@@]2(O)CCN(C3CCCCC3)C[C@H]2C1	-9.95
Cc1nc2c(c(=O)n1C)CCN(Cc1cc3cc[nH]c3cn1)CC2	10.6
COCCN1CC[C@H]2CN(c3cc(OC)ncn3)C[C@@H]2C1=O	24.4
Cc1ccc(CNC(=O)C2CCCCN2C(=O)OC(C)(C)C)cn1 (configuration not stated)	-3.38
CCc1oc(C(=O)N(C)Cc2nonc2C)cc1CN(CC)CC	-16.6
CC(=O)Nn1c(C)cc(CN2CCC(C(=O)N3CCCC3)CC2)c1C	-2.42
Cn1cc(C(=O)N2C[C@@H]3COC[C@]3(COCc3cccnc3)C2)cn1	-12.3
N#Cc1cccc(CN(CCO)Cc2ccsc2)c1	-20.4
NS(=O)(=O)N1CCc2ccc(NC(=O)CC(F)(F)F)cc21	-1.59
CN(CC(=O)Nc1nc2c(s1)CCCCCC2)C(=O)c1ccco1	-17.3
Cc1ccc2c(n1)N(CCN(C)C)CCN(C(=O)c1ccco1)C2	-4.83
CCOCc1cnc2n1CCN(C(=O)c1cn(C)c3ccccc13)C2C (configuration not stated)	8.97
O=C(NC1CCCC1)[C@H]1C[C@H]2OCC[C@H]2N(Cc2ccoc2)C1	-4.07
COc1cc(C)nc(N2CCN(C(=O)c3cccc(C#N)c3)CC2)n1	-5.09
COCCN1CCC(NCc2cccc(F)c2)C1 (configuration not stated)	26.3
COCCCNC(=O)c1cn(C(C)C)cc2c(=O)[nH]nc1-2	-9.87

SMILES	cytotoxicity at 70.5 h [%]
Cn1cccc1C(=O)N1CCC2(CCCN2S(C)(=O)=O)CC1	-8.2
Cn1c2c(c(=O)n1C)CN(C(=O)c1ccsc1)CCC2	-0.418
O=C(NCc1ccc2c(c1)CCCO2)c1ccc(C2CCNC2)cc1 (configuration not stated)	-18
COc1c(C2CCCN2c2ncnc3c2CCC3)c(C)nn1C (configuration not stated)	-2.31
CCN1CC[C@@]2(C(=O)N(C)C)CCN(C(=O)NC(C)C)CC[C@@H]12	-4.36
CN1CCN(C)C(CNC(=O)N(C)Cc2ccccc2Cl)C1 (configuration not stated)	-0.256
CN(C)c1ncc(-c2cncnc2)c(C2CNCCO2)n1 (configuration not stated)	-8.74
CCCSCC(=O)N1CCCC2(CCC(=O)N(CCc3c[nH]cn3)C2)C1 (configuration not stated)	-5.03
Fc1cccc(N2CCCC3(CN(Cc4ccncc4)CCO3)C2)c1 (configuration not stated)	-4.69
COCCN(Cc1sccc1C)C(=O)COc1ccccc1O	-4.7
Cc1cnc2c(C(=O)N3CCCC(OCc4ccccn4)C3)cnn2c1 (configuration not stated)	-7.53
CCn1cc(CN(C)c2nc(C)c3ccc(S(C)(=O)=O)cc3n2)cn1	-5.64
CC(C)c1noc(Cn2ncn3cccc3c2=O)n1	-6.57
Cc1ccccc1N1CCCN(C(=O)CC2CN(C(C)C)CCO2)CC1 (configuration not stated)	0.214
O=C(c1cnccn1)N1CCC2(CCCN(Cc3ccoc3)C2)C1 (configuration not stated)	11.3
COCC(C)NC(=O)NCCCc1cc(N)n(-c2ccccc2)n1 (configuration not stated)	-108
COC[C@@]12CCC[C@@H]1CN(C(=O)Cc1ccco1)C2	-5.39
Cc1ccc(C(=O)N2C[C@@H]3CCCO[C@@H]3[C@H](N(C)Cc3ccco3)C2)o1	28.7
CC(OCC(F)(F)F)C(=O)NCCN(C)C (configuration not stated)	20.8
Cc1nnc(Nc2cccc(C3CCCN(Cc4ncc[nH]4)C3)n2)s1 (configuration not stated)	14
Cc1nn(C)c(C)c1-c1cncc(C2CCN(S(C)(=O)=O)CC2)n1	-19.6
Cc1ccc(C(=O)N2CCC3(CC2)CN(CCN(C)C)C(=O)O3)c(F)c1	7.08
Cc1ccc(OCCNC(=O)C(C)n2cncn2)cc1 (configuration not stated)	10.5

SMILES	cytotoxicity at 70.5 h [%]
c1cc(-c2noc(-c3cc(C4CC4)[nH]n3)n2)cc(N2CCCCC2)n1	-0.746
CCc1noc(CN2CCN(C(=O)c3ccccc3F)CC2)n1	29.8
CC(C)Oc1ccccc1CNC(=O)c1[nH]ncc1Br	7
O=C(NCc1ccc(-c2ccn[nH]2)cc1)N1CCC(N2CCCC2)C1 (configuration not stated)	-5.88
COCCCC1(CO)CCCN(Cc2nccs2)C1 (configuration not stated)	-7.41
CC(C)c1nc(C2CCCN2C(=O)CCn2cncn2)no1 (configuration not stated)	-7.37
Cc1ccc(Cl)c(CN2CCC(c3nccn3C(C)C)CC2)c1F	-1.48
Nc1nccc(C2CCN(CCO)C2)n1 (configuration not stated)	-21.4
Cn1ccc2ccnc(CC3CN(C(=O)c4cscn4)C3)c21	-2.15
CCC(CO)N(Cc1ccsc1)Cc1ccccc1C(=O)O (configuration not stated)	-8.61
CC(C)NC(=O)CCNC(=O)Nc1cnn(-c2ccccc2Cl)c1	-6.67
CC(C(=O)NC1CCN(C)CC1)n1nc(C(F)(F)F)c(Cl)c1C1CC1 (configuration not stated)	11.6
COCC1CC2(CCN(Cc3cccc(C#N)c3)CC2)CN1C(C)C (configuration not stated)	-4.89
CSC1(CNC(=O)c2ccn(-c3ccccc3F)n2)CCOCC1	-8.53
CN1CCN(c2ncc(CNCCCc3cccc(F)c3)cn2)CC1	25.4
O=C(NC1CC1)[C@@H]1CCO[C@@H]2CCN(C3CCOCC3)C[C@H]21	-4.77
Cc1nnc(SCC(=O)NCc2ccc3c(c2)CCC(=O)N3)s1	2.74
Cc1cccn2c(=O)cc(OC(=O)c3ccccc3Cl)nc12	-10.1
CC1(C)[C@H]2CC=C(CN3CCCn4nc(CNS(C)(=O)=O)cc4C3)[C@@H]1C2	-8.88
COc1ccc(C(=O)N2CCN(CCO)CC2)c(F)c1	-4.32
CN(CCC#N)C(=O)Cn1cnc2c(Br)cccc2c1=O	-1.58
CCc1nccn1CC1CCCN1S(=O)(=O)Cc1ccccc1 (configuration not stated)	-10.3
c1cnc2c(CN3CCCCC3c3ccncn3)cnn2c1 (configuration not stated)	-8.22

SMILES	cytotoxicity at 70.5 h [%]
CC(C)(C)C(=O)N1C[C@@H](F)[C@@H](OCc2nc3ncccc3[nH]2)C1	-2.41
Cc1cnc(N)c(C(=O)C2CCN(C(=O)c3cnc(C)cn3)CC2)c1	-13
N#CCc1cccc(C(=O)N2CCN(CC(O)c3ccccc3)CC2)c1 (configuration not stated)	2.39
CC(=O)N1CCN(CCNS(=O)(=O)c2ccc(C)c(F)c2)CC1	28.3
O=c1cc(C2CCNCC2)nc(CCCc2ccccc2)[nH]1	-3.39
CN(Cc1cscn1)C(=O)C(c1ccccc1)N1CCSCC1 (configuration not stated)	21.5
CC(C)c1nsc(N2CCOC3(CCCC3)C2)n1	-2.46
CCC1CN(CC(=O)N2CCCC2)CCN1CCOC (configuration not stated)	-10.3
CN1CCOC(C(=O)Nc2ccc3c(c2)nc(C(C)(C)C)n3C)C1 (configuration not stated)	-2.12
Cc1ccc(CNC(=O)CN2CCCC(Cn3cncn3)C2)cc1 (configuration not stated)	-2.99
COCCc1noc(CNC2CCCN(c3cccnn3)C2)n1 (configuration not stated)	11
CN(C(=O)c1ccncc1)c1nnc(C2CCOC2)s1 (configuration not stated)	-5.28
O=C(Oc1ccccc1)N1CCC(CNS(=O)(=O)c2cccnc2)CC1	20.9
CCCc1cc(CNC2CCN(c3cc(C)nc(N)n3)CC2)on1	-5.61
Cc1cc(-c2n[nH]c3c2CN(S(=O)(=O)c2ccsc2)CC3)c(C)o1	-9.27
Cc1ccc(CCCC(=O)N2CCC(=O)Nc3cccnc32)s1	12.9
Cc1c(C(=O)N2CCCN(S(C)(=O)=O)CC2)cnn1C	-3.33
N#CCCN(C(=O)CN1CCCC1c1ccccc1Cl)c1ccccc1 (configuration not stated)	-11.7
COc1ccc(CNC(Cn2cncn2)c2ccccc2)cc1C (configuration not stated)	-4.57
CN(C)C(=O)N1CC2(CCN(S(=O)(=O)C3CC3)CC2)c2ccccc21	0.848
COc1ccc(N2CCN(CC[C@H](O)c3ccccc3)CC2=O)cc1	-12.7
CCS(=O)(=O)N1Cc2ncn(C)c2C(COCC2CCOCC2)C1 (configuration not stated)	-3.96
CNC(=O)C1CCC2(CCN(c3ncc(C)cn3)CC2)CO1 (configuration not stated)	4.35

SMILES	cytotoxicity at 70.5 h [%]
COc1ccc2c(c1)OCC(Cc1ccc(N)nc1C)C2 (configuration not stated)	-8.63
CC(=O)CCCC(=O)N(Cc1ccsc1)CC(C)C	-5.67
CCc1c(C)nn(CCN2CC3(CCOC3)CCC2=O)c1C (configuration not stated)	-6.21
CC(c1nc(C2CC2)no1)N(C)Cc1ccc2c(c1)OCCO2 (configuration not stated)	-0.549
Cc1cc(OCC(O)c2nc3c([nH]2)CC(C)(C)CNC3=O)ccc1Cl (configuration not stated)	-12.4
CCOC(=O)[C@]12CCCN(Cc3cccs3)C[C@H]1CN(CCOC)C2	1.08
CC(C(=O)NC1(C#N)CCCCC1)N1CCc2c(ncn2C2CC2)C1 (configuration not stated)	-8.12
c1ccc(O[C@@H]2CO[C@@]3(CCCN(CC4CCOCC4)C3)C2)nc1	-8.71
Cc1cc(-c2cccc(C(=O)O)c2)nc(C2CCN(C(C)C)CC2)n1	-3.8
CC1CCC(NCCCN2CCOCC2)CC1 (configuration not stated)	-6.93
O=C(Nc1ccccc1)N1CCC(N2Cc3ncccc3C2=O)CC1	-8.29
COC[C@@]12CCO[C@@H]1CCN(C(=O)COc1ccccc1OC)C2	-11.3
Cc1nnc(NCCn2nc(C)c(Cl)c2C)o1	-6.66
COc1ccnc(N2CCCN(Cc3ncc(C(C)C)o3)CC2)n1	-4.8
CN(C)C(=O)c1ccn(-c2ccc3ccccn23)n1	-4.81
CC(C)c1nc2n(n1)CC(NCC(=O)NCCC1=CCCCC1)CC2 (configuration not stated)	-0.816
Cc1cc(C)n(CC2CCCN2C(=O)c2ccc3ccccc3n2)n1 (configuration not stated)	-10.7
Cc1nc(C)n(C2CCCN(C(=O)CCc3cn(C)nc3C)C2)n1 (configuration not stated)	-0.365
O=C(c1cncc(N2CCC3(CCCNC3)C2)n1)N1CCCC1 (configuration not stated)	-5.37
CC(C)c1ccc(C(C)N2CCCN(C(N)=O)CC2)cc1 (configuration not stated)	-5.71
